Test results reported in patent US10238658B2, “1-pyrazolyl-3-(4-((2-anilinopyrimidin-4-yl) oxy) napththalen-1-yl) ureas as p38 MAP kinase inhibitors” (Respivert Limited, priority 2011, dated 2019).

Assays:
TNFα [1] = assay: LPS-induced TNFα release in THP-1 cells; type: cell-based; conditions: Homo sapiens, THP-1, THP1 cells
Method: THP-1 cells, a human monocytic cell line, were stimulated with 3 μg/mL of LPS (from E. Coli; 0111:B4, Sigma) for 4 hr and the supernatant collected for determination of the TNFα concentration by sandwich ELISA (Duo-set, R&D systems). The inhibition of TNFα production was calculated at each concentration by comparison with vehicle control.

RSV A2 = assay: In vitro RSV virus load (F-protein ELISA) in primary bronchial epithelial cells; type: cell-based, respiratory syncytical virus; conditions: human respiratory syncytial virus, Primary bronchial epithelial cell; for inhibition at 0.04 µg/mL: at 0.04 μg/mL, read-out: RSV (F-Elisa) (HBEC) % inhibition
Method: Normal human bronchial epithelial cells (NHBEC) grown in 96 well plates were infected with RSV A2 (Strain A2, HFA, Salisbury, UK) at an MOI of 0.001 in the LHC8 Media:RPMI-1640 (50:50) containing 15 mM magnesium chloride and incubated for 1 hr at 37° C. for adsorption. The cells were then washed with PBS (3×200 μL), fresh media (200 μL) was added and incubation continued for 4 days. Where appropriate, cells were pre-incubated with the compound or DMSO for 2 hr, and then added again after washout of the virus.
The cells were fixed with 4% formaldehyde in PBS solution (50 μL) for 20 min, washed with washing buffer (3×200 μL; PBS including 0.5% BSA and 0.05% Tween-20) and incubated with blocking solution (5% condensed milk in PBS) for 1 hr. Cells were then washed with washing buffer (3×200 μL) and incubated for 1 hr at RT with anti-RSV (2F7) F-fusion protein antibody (40 μL; mouse monoclonal, lot 798760, Cat. No. ab43812, Abcam) in 5% BSA in PBS-tween). After washing, cells were incubated with an HRP-conjugated secondary antibody solution (50 μL) in 5% BSA in PBS-Tween (lot 00053170, Cat.No. P0447, Dako) and then TMB substrate (50 μL; substrate reagent pack, lot 269472, Cat. No. DY999, R&D Systems, Inc.) was added. This reaction was stopped by the addition of 2N H2SO4 (50 μL) and the resultant signal was determined colorimetrically (OD: 450 nm with a reference wavelength of 655 nm) in a microplate reader (Varioskan® Flash, ThermoFisher Scientific).
After washing with washing buffer, 1% SDS in distilled water (100 μL) was added to each well, and plates were shaken lightly on the shaker for 1 hr prior to reading the absorbance at 595 nm. The measured OD450-655 readings were corrected to the cell number by dividing the OD450-655 by the OD595 readings. The percentage inhibition for each well was calculated and the IC50 value was calculated from the concentration-response curve generated from the serial dilutions of compound.

PBMC = assay: Cell mitosis assay; type: cell-based; conditions: Homo sapiens; for inhibition at 5 µg/mL: read-out: Mitosis Assay % inhibition in PBMC Cells at concn 5 μg/mL
How it was run: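 Mitotic index read by flow cytometry (lymphocyte gate) after phospho-histone 3 plus propidium iodide staining of fixed, permeabilised cells. Healthy-donor PBMCs got 2% PHA for 48 hr, test compounds for 20 hr, and 0.1 μg/mL demecolcine during the final 2 hr.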

TNFα [2] = assay: LPS-induced TNFα release in d-U937 cells; type: cell-based; conditions: Homo sapiens, dU937, dU937 cells; relative to 10 μg/mL BIRB796; read-out: LPS Induced Release TNFα REC50 (dU937)
How it was run: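 U937 cells differentiated with PMA (100 ng/mL, 48–72 hr) were pre-incubated with compound for 2 hr, then stimulated with E. coli O111:B4 LPS (0.1 μg/mL) for 4 hr. Supernatant cytokine measured by sandwich ELISA; inhibition vs vehicle control at each concentration, REC50 taken from the concentration-response curve.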

HRV16 = HRV16 induced CPE in MRC5 cells; type: cell-based; conditions: Human rhinovirus sp.; for inhibition at 0.04 µg/mL: HRV16, MRC5, at 0.04 μg/mL, read-out: HRV CPE (MRC5) % inhibition
Method: The supernatants were aspirated, and then fresh media added followed by incubation for 4 days. Where appropriate, cells were pre-incubated with compound or DMSO for 2 hr, and the compounds and DMSO added again after washout of the virus.
The percentage inhibition for each well was calculated. The IC50 value was calculated from the concentration-response curve generated by the serial dilutions of the test compounds.

IL-8 = assay: Rhinovirus-induced IL-8 release in BEAS2B cells; type: cell-based; conditions: Homo sapiens, BEAS-2B
How it was run: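 BEAS2B cells infected with HRV RV16 at MOI 5 for 2 h at 33 °C, washed, then cultured 72 h; compounds given 2 h before infection and again after washout. IL-8 measured in supernatant by ELISA; surface ICAM-1 by cell-based ELISA (OD450–655), normalised to crystal violet cell count (OD595).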

Row | SMILES | IC50 (TNFα [1]) [nM] | inhibition at 0.04 µg/mL (RSV A2) [%] | IC50 (RSV A2; read-out: RSV (F-Elisa) (HBEC) IC50) [nM] | inhibition at 1 µg/mL (PBMC; read-out: Mitosis Assay % inhibition in PBMC Cells at concn 1 μg/mL) [%] | inhibition at 5 µg/mL (PBMC) [%] | EC50 (TNFα [2]) [nM] | inhibition at 0.04 µg/mL (HRV16) [%] | IC50 (HRV16; HRV16, MRC5 cells, HRV-16) [nM] | IC50 (IL-8; BEAS2B cells, HRV-16) [nM] | inhibition at 0.04 µg/mL (IL-8; at 0.04 μg/mL, read-out: HRV IL-8 (BEAS2B) % inhibition) [%]
1 | Cc1ccc(-n2nc(C(C)(C)C)cc2NC(=O)Nc2ccc(Oc3ccnc(Nc4ccccc4)n3)c3ccccc23)cc1 [Example 1, 1-(3-(tert-Butyl)-1-(p-tolyl)-1H-pyrazol-5-yl)-3-(4-(2-(phenylamino)pyrimidin-4-yloxy)naphthalen-1-yl)urea] | 3.4 | 85 | 15.4 | 13.7 | 31.3 | 2.3 | 57 | 17.1 | 0.036 | –
2 | Cc1ccc(-n2nc(C(C)(C)C)cc2NC(=O)Nc2ccc(Oc3ccnc(Nc4cccc(O)c4)n3)c3ccccc23)cc1 [Example 2, 1-(3-(tert-Butyl)-1-(p-tolyl)-1H-pyrazol-5-yl)-3-(4-((2-((3-hydroxyphenyl)amino)pyrimidin-4-yl)oxy)naphthalen-1-yl)urea] | 2.8 | 42 | – | – | 70.6 | 2.4 | 5 | – | – | 100
